In PMC7089970, “Structural insights into catalytic mechanism and product delivery of cyanobacterial acyl-acyl carrier protein reductase” (Nature Communications, 2020):
Where two headings read alike, the source gives them in different places.

Experiments:
[1] = target: T1, AAR-wt (Synechococcus elongatus, UniProt Q54765); test: Isothermal titration calorimetry, stearoyl-CoA (650 uM) titrated into 30 uM AAR in 25 mM Tris-HCl pH 7.6, 1 mM TCEP, without KCl.; type: binding; conditions: read-out: KD value (µM), AAR (−K+)
T1 construct: gene Synpcc7942_1594; full length (341 residues), C-terminal His-tag removed by TEV protease; expressed in E. coli BL21(DE3) with chaperone plasmid pG-KJE8
Procedure: The binding affinity of AAR with ADO or stearoyl-CoA was measured by isotheral titration calorimetry (ITC) using a MicroCal Auto-ITC200 microcalorimeter (GE Healthcare Bio-sciences, Pittsburgh, PA). […] Wild type or mutants of ADO (or AAR) were placed into the sample cell (200 µL working volume) at a final concentration of 30 µM (60 µM for AAR) and was titrated with successive 2-µL injections of AAR protein with concentration of 500 µM (or ADO protein with concentration of 1 mM). Titrating AAR (500 µM) or ADO (1 mM) into the same buffer was performed as a control to determine the background correction. […] Injection of stearyol-CoA into the reaction buffer was performed as control to determine background correction.

[2] = tested on: AAR; conditions: cited from earlier work
[3] = tested on: AAR; conditions: ITC
Source text: To verify this assumption, we measured the binding affinity of K^+ ions with AAR, using ITC method.
AAR to perform all the experiments. The small organic molecule, such as stearoyl-CoA, can be used in high concentration, which is more favorable for either co-crystallization with AAR(-ADO) or soaking with the AAR(-ADO) crystals. In comparison, stearoyl-ACP is an 80-residue protein with a stearoyl chain linked to the 4’-phosphopanthetheine on a Ser residue, while the crystallization of protein-protein complexes (AAR-ACP) is much difficult than that of protein-ligand
(AAR-stearoyl-CoA) complexes.
ACP protein covalently linked with stearic chain (stearoyl-ACP), according to the […]
Considering the similar chemical structure of the acyl part of acyl-ACP and acyl-CoA, and the time-consuming experimental processes for obtaining the stearoyl-ACP protein and […]
In our originally submitted manuscript, we supposed that Mg2+ ion binds with AAR near its active site, but we […]
performed ITC experiment to confirm whether Mg2+ ions bind with AAR.
4. The authors assumed that Mg2+ and K+ ions bind to AAR in the crystals. However,
Therefore, it is required to confirm that Mg2+ and/or K+ really bind to AAR using […]
We have now performed the ITC

[4] = target: T2, acyl-ACP reductase from Synechococcus elongatus PCC 7942, C294S mutant (Synechococcus elongatus PCC 7942, UniProt Q54765 1-341, C294S); test: crystal structure; AAR incubated with stearoyl-CoA (1:3), then with ADO (1:1), gel filtration; crystals in 0.1 M HEPES pH 7.5, 20% PEG8000; NADPH form by soaking; conditions: both partners purified
T2 construct: acyl-ACP reductase (AAR), Synechococcus elongatus PCC 7942, gene Synpcc7942_1594; complete protein of 341 residues; also called AAR C294S; AAR_(stearoyl-CoA); source: E. coli BL21(DE3), purified (same protocol as wild-type AAR); incubated with stearoyl-CoA before ADO was added; not shown: His6, C-terminal, cleaved
T2 sequence (looked up): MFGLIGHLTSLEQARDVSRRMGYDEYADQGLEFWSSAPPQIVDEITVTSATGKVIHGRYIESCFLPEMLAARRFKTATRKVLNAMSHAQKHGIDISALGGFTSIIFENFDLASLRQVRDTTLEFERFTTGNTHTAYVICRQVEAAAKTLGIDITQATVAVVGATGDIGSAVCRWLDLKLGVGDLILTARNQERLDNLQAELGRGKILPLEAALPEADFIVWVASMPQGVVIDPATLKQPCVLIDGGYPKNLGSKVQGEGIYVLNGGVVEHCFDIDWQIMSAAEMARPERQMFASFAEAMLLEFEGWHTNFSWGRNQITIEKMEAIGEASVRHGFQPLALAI

T1 sequence (Q54765 whole entry): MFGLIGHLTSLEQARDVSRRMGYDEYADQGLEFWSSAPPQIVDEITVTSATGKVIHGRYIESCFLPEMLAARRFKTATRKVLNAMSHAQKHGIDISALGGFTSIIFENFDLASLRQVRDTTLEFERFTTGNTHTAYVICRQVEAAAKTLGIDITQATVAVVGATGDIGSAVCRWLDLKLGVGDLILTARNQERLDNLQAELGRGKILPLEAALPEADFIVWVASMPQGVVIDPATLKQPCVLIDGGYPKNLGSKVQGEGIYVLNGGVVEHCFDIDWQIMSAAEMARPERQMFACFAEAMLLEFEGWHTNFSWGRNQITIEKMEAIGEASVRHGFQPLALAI

Molecule: CCCCCCCCCCCCCCCCCC(=O)SCCNC(=O)CCNC(=O)[C@H](O)C(C)(C)COP(=O)(O)OP(=O)(O)OC[C@H]1O[C@@H](n2cnc3c(N)ncnc32)[C@H](O)[C@@H]1OP(=O)(O)O [stearoyl-CoA, stearoyl-coenzyme A]
- Kd [1]: 2.3 ± 0.38 µM

Molecule: [K+] [K^+]
- stimulation of AAR activity by monovalent metal ions [2]: 10–20 fold
- binding of metal ion with AAR (in words) [3]: failed to detect signs of AAR binding K^+ ions
- binding of metal ion with AAR (in words) ([3]; listed as K+): do not stably/directly bind AAR

B1: aldehyde-deformylating oxygenase from Synechococcus elongatus PCC 7942, wild type, His-tag removed (enzyme, UniProt Q54764 1-231, looked up)
chain: MPQLEASLELDFQSESYKDAYSRINAIVIEGEQEAFDNYNRLAEMLPDQRDELHKLAKMEQRHMKGFMACGKNLSVTPDMGFAQKFFERLHENFKAAAAEGKVVTCLLIQSLIIECFAIAAYNIYIPVADAFARKITEGVVRDEYLHRNFGEEWLKANFDASKAELEEANRQNLPLVWLMLNEVADDARELGMERESLVEDFMIAYGEALENIGFTTREIMRMSAYGLAAV
notes: aldehyde-deformylating oxygenase (ADO), Synechococcus elongatus PCC 7942, gene Synpcc7942_1593; Constructed and expressed 'similarly as' SeAAR in the modified pET24a (C-terminal TEV site and His6 peptide); ENLYFQ probably stays after cleavage (surmised); also called ADO; SeADO; not shown: His6, C-terminal, cleaved
- binding result [4]: binds
